Here are results for 2 molecules from patent publication EP4527828A1, “BIPHENYL COMPOUND, PHARMACEUTICAL COMPOSITION, METHOD FOR PREPARING SAME, AND USE THEREOF” (Longivitron (Suzhou) Biotechnology Co., Ltd, priority 2022, dated 2023).

Test [1] deals with mouse melanoma B16F10. It counts as in vivo. As to conditions: B16F10, Table 7, 100 mg/kg intraperitoneally once. On the procedure: (§1) (1) 43 8-week-old female C57B/L mice were selected and divided into 5 cages. One preserved B16F10 tumor-bearing female C57L mouse was sacrificed by cervical dislocation. 75% alcohol was sprayed on the skin of the mouse in a laminar flow cabinet, and the tumor tissue of the tumor-bearing mouse was separated by sterilized surgical instruments and cut into a sterilized 5 mL homogenizer with ophthalmic scissors. The tumor tissue was slowly milled on ice to form a tumor fluid. The number of cells was 6.85 × 10^7 cells/mL as counted with a BioRad counting instrument. The tumor fluid was placed in an Erlenmeyer flask in an ice bath for later use. The tumor fluid was evenly aspirated using a 1 mL sterile syringe and inoculated 0.2 mL/C57/L mouse. After the inoculation was completed, the mice continued to be fed under the initial feeding conditions.
(§2) (4) The animals were sacrificed, and the tumors were separated and weighed. The animals in each group were treated immediately 1 h after administration on the last day and weighed, and the tumor tissue was weighed.
Animal grouping and administration: On the second day after tumor fluid inoculation of C57B/L mice, tumor-bearing mice were randomly grouped: a control group, a Compound 8-5 mg/kg group, a Compound 8-10 mg/kg group, a Compound 8-20 mg/kg group, and a positive control drug cyclophosphamide CTX-100 mg/kg group. The animals were weighed and administered daily. The drugs to be tested were administered orally daily, and the positive control drug CTX was administered intraperitoneally once. After the experiment was completed, the body weights and tumor weights of the animals were weighed, and the tumor weight inhibition rate (%) was calculated.

The subject of test [2] is mouse liver cancer HEPA1-6. The format is in vivo. As to conditions: HEPA1-6, 100 mg/kg ip once, after 27 days of administration. The procedure:
(1) 32 8-week-old female C57L mice were selected and divided into 5 cages. HEPA1-6 cells cultured with DMEM + 10% FBS in vitro were washed with PBS and digested with 0.25% trypsin for 3 min. The digestion was terminated with a serum-containing medium, the cells were centrifuged at 2500 rpm for 5 min, the supernatant was discarded, and the cells were resuspended with an appropriate amount of PBS twice. The number of cells was 1.14 × 10^7 cells/mL as counted with a BioRad counting instrument. The cell suspension was placed in an Erlenmeyer flask in an ice bath for later use. The tumor fluid was evenly aspirated using a 1 mL sterile syringe and inoculated 0.2 mL/mouse. After the inoculation was completed, the mice continued to be fed under the initial feeding conditions.
(2) Animal grouping: On the second day after tumor fluid inoculation of C57B/L mice, 32 mice were randomly grouped: 8 mice in a control group, 6 mice in a Compound 4-5 mg/kg group, 6 mice in a Compound 4-10 mg/kg group, 6 mice in a Compound 4-20 mg/kg group, and 6 mice in a positive control drug cyclophosphamide (CTX)-100 mg/kg group. The drug test groups were given the drugs to be tested orally once a day, and the positive control drug CTX was injected intraperitoneally once. The mice were weighed and administered daily.
(3) Drug preparation: The corresponding amounts of the drugs to be tested were weighed according to the final concentrations of the experimental groups. The drugs of the Compound 4-5 mg/kg group, the Compound 4-10 mg/kg group, and the Compound 4-20 mg/kg group were prepared with 5% CMCNa + Tween 80, and CTX was prepared with normal saline. The mice in the control group were given 5% CMCNa solution orally. The dosages were as follows: 0.4 mL/20 g body weight of the animal for intragastric administration, and 0.2 mL/20 g body weight of the animal for intraperitoneal injection.
(4) The animals were sacrificed, and the tumors were separated and weighed. The animals in each group were treated immediately 1 h after administration on the last day and weighed, and the tumor tissue was separated and weighed.

Test [3] relates to mouse melanoma B16F10. It counts as in vivo. The conditions noted are these: B16F10, Table 6, 100 mg/kg ip once, after 15 days of administration. The procedure: as §1
(2) Animal grouping and administration: On the second day after tumor fluid inoculation of C57B/L mice, 43 mice were randomly grouped: 10 mice in a control group, 8 mice in a Compound 4-20 mg/kg group, 8 mice in a Compound 4-30 mg/kg group, 8 mice in a Compound 4-40 mg/kg group, and 9 mice in a positive control drug cyclophosphamide CTX-100 mg/kg group. The mice were weighed and administered.
(3) Drug preparation: The corresponding amounts of the drugs were weighed according to the final concentrations of the experimental groups. The drugs of the Compound 4-20 mg/kg group and the Compound 4-30 mg/kg group were prepared with 0.25% CMCNa + Tween 80 and administered orally once a day. The drug of Compound 4-40 mg/kg was prepared with normal saline + Tween 80 and administered intraperitoneally. CTX was prepared with normal saline and administered intraperitoneally once. The mice in the control group were given 0.25% CMCNa solution orally.
as §2

For the next test, the target named is T1, LAG3/FGL1 (Homo sapiens, UniProt P18627).
T1 sequence (P18627 23-450 limits assumed): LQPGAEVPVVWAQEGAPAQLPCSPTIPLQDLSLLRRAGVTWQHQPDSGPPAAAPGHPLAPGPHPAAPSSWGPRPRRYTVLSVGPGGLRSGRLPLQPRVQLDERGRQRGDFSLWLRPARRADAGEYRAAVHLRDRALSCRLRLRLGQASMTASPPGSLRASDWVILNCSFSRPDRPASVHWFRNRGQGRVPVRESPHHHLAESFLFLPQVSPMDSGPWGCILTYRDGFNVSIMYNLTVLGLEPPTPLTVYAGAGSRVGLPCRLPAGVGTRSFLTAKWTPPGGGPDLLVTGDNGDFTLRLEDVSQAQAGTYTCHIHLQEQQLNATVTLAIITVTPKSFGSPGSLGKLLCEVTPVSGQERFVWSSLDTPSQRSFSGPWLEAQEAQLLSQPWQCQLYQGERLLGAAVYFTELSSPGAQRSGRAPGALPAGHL
Put plainly: HTRF binding inhibition of LAG3 and its ligand FGL1. The conditions noted are these: binding inhibition LAG3/FGL1; read-out: IC50. On the procedure:
Reagent preparation: ① Tag1-LAG3 protein: a protein solution with a concentration of 50 nM (20 µL with a final system concentration of 10 nM) was prepared using a diluent. ② Tag2-FGL1 protein: a protein solution with a concentration of 100 nM (20 µL with a final system concentration of 20 nM) was prepared using a diluent. ③ Anti-Tag1-Tb: a 100× stock solution was diluted with a detection buffer to a 1 × stock solution. ④ Anti-Tag2-XL665: a 100× stock solution was diluted with a detection buffer to a 1 × stock solution.
Assay step: (1) 2 µL of compound solution (with a concentration to be measured of 10×) was added to a 384-well opaque plate having a white background, 4 µL of Tag1-LAG3 protein and 4 µL of Tag2-FGL1 protein were added, respectively, and the plate was incubated at room temperature for 15 min; (2) Anti-Tag1-Tb and Anti-Tag2-XL665 were mixed at a ratio of 1:1 in advance, and 10 µL of mix solution was added to each well; (3) the plate was gently mixed, sealed, and incubated at room temperature for 1 h or overnight before detection.
A general note: TR-FRET usually uses a lanthanide donor and a delayed reading to cut background.

A further test has as its target T2, LAG3/MHCII (Homo sapiens, UniProt P18627).
T2 sequence (P18627 23-450 limits assumed): T1 sequence (P18627 23-450 limits assumed)
Put plainly: HTRF binding inhibition of LAG3 and its ligand MHCII. As to conditions: binding inhibition LAG3/MHCII. On the procedure: HTRF (Homogeneous time-resolved fluorescence) is based on two techniques, fluorescence resonance energy transfer (FRET) and time-resolved fluorescence (TRF). The detection was carried out using a 384-well plate. 2 µL of a compound to be tested with an appropriate concentration was collected, 4 µL of Tag1-LAG3 protein (with a final concentration of 10 nmol·L^-1) was added, 4 µL of Tag2-MHCII (with a final concentration of 20 nmol·L^-1) was added, and the plate was incubated at room temperature for 15 min. 10 µL of Anti-Tag1-Tb working solution (prepared by adding 25 µL of Anti-Tag1-Tab mother solution to 2475 µL of dilution buffer) was added, 10 µL of Anti-Tag2-XL665 working solution (prepared by adding 25 µL of Tag2-XL665 mother solution to 2475 µL of dilution buffer) was added, and the plate was sealed with a film and incubated at room temperature for 1 h. The detection was carried out using a Perkin Elma Envision instrument.

Structures are written as SMILES. Where two headings read alike, the source gives them in different places.

With `O=P1(N(CCCl)CCCl)NCCCO1` (centres unmarked) [CTX, cyclophosphamide, reference compound], the Inhibition rate in the test with mouse melanoma B16F10 [1] is 82.93%; in test [2] it was -18.65%; with mouse melanoma B16F10 [3], 61.20%. The results for the Tumor weight (in the test with mouse melanoma B16F10 [1]; in test [2]; with mouse melanoma B16F10 [3]) were 0.30 ± 0.10 g, 0.804 ± 0.459 g and 1.128 ± 0.394 g, respectively.
By IC50 is commonly meant the concentration that gives 50% inhibition. For `CCCCCCOc1ccc(C(=O)NCCCCNC(=O)C(F)(F)F)cc1-c1cc(C(=O)NCCCCNC(=O)C(F)(F)F)ccc1OCCCCCC` [Compound 13], the values for the IC50 at LAG3/FGL1 and on LAG3/MHCII were 46 µM and 4.01 µM, respectively.
